Experimental data taken from ChEMBL document CHEMBL5050858, “Polyheterocyclic compounds as mettl3 inhibitors” (2021).
pIC50: −log10 of the molar value.

Biological target: METTL3/METTL14 (Homo sapiens, UniProt Q86U44)
Experiment: Inhibition of full-length His-tagged METTL3 (unknown origin) coexpressed with full-length FLAG-tagged METTL14 (unknown origin) expressed in baculovirus expression system using 5'P-uacacucgaucuggacuaaagcugcuc-3' RNA as substrate pre-incubated for 10 mins and followed by substrate addition and measured after 60 mins by methyltransferase assay

Chain of METTL3/METTL14 (Q86U44 whole entry): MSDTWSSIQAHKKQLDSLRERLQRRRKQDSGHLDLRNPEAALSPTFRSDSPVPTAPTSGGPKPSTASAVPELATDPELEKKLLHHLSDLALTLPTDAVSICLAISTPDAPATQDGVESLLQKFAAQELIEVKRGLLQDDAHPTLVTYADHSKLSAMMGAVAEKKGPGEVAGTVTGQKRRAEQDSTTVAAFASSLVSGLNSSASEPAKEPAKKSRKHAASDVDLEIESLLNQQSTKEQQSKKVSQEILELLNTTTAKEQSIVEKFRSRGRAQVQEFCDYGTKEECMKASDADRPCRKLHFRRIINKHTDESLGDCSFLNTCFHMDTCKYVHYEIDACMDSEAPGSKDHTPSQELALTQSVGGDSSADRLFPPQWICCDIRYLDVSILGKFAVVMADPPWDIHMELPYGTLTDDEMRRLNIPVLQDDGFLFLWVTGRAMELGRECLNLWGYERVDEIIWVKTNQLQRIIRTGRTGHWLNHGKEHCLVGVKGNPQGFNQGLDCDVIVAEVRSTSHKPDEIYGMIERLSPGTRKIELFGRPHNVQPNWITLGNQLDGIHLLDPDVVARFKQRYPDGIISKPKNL
Chain of METTL3/METTL14 (Q9HCE5 whole entry, further chain): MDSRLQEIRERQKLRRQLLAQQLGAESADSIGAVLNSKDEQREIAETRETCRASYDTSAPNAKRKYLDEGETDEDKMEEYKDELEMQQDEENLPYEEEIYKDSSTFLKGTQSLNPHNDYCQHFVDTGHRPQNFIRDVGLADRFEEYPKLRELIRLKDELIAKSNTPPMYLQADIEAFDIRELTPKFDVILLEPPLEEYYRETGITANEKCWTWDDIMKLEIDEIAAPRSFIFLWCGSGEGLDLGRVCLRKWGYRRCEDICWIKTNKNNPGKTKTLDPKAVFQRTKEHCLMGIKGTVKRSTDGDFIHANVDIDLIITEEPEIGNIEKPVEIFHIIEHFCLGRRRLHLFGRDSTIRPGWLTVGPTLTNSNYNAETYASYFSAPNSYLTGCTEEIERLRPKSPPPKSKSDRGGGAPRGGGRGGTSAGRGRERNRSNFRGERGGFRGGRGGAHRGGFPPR

Q: How did the pIC50 turn out when O=C(NCc1ccc2cc(CN3CC(C4CC4)C3)[nH]c2c1)c1cc(=O)n2ccccc2n1 was run?
A: 8.03

Q: O=C(NCc1ccc2cc(CCN3CC4(CCC4)C3)[nH]c2c1)c1cc(=O)n2ccccc2n1 was tested. Which pIC50 did it give?
A: 6.93
